Laboratory results from publication PMC6277767, “Broad and Region-Specific Impacts of the Synthetic Cannabinoid CP 55,940 in Adolescent and Adult Female Mouse Brains” (Frontiers in Molecular Neuroscience, 2018).

Experiment: CP 55,940 levels in eight brain regions 2 h after single i.p. 3 mg/kg injection (HPLC/MS/MS)
Format: in vivo, mouse
Details: for CP 55,940 Direction (relative to Veh) / CP 55,940 Magnitude (x Veh level): p .000
Experimental: The Bloomington Institutional Animal Care and Use Committee of Indiana University reviewed and approved the animal procedures. Female mice from the CD1 strain were utilized to match our study examining THC’s effects on the brain lipidome ([Leishman et al., 2018]). Mice were given a single i.p. injection of either 3 mg/kg CP or 1:1:18 cremophor:ethanol:saline vehicle (please refer to the section “3 mg/kg CP Is Relevant for Synthetic Cannabinoid Abuse and Has Stronger Effects on the Female Mouse Brain Lipidome During Adolescence” for a justification of dose and use of female mice). Three different age groups were given injections: PND 35 and PND 50 adolescents, and adult mice (PND 113). At least eight mice in each age group received CP and at least eight received vehicle. Matching the THC study time course ([Leishman et al., 2018]), mice were sacrificed via rapid decapitation 2 h after injection. Brains were immediately removed and flash-frozen in liquid nitrogen, and then stored at -80°C until dissections were performed. Brains were dissected on an ice-cold dissection plate into the following regions: STR, HIPP, CER, THAL, CTX, HYP, MID, and STEM. These abbreviations for these brain areas will be used exclusively when discussing the results generated by these specific dissections. Each dissected area was immediately placed in liquid nitrogen and then stored at -80°C until used for lipid extraction.
Tissue extracts were performed as previously described ([Bradshaw et al., 2006]; [Stuart et al., 2013]; [Raboune et al., 2014]; [Leishman et al., 2016a],[b], [2017], [2018]). First, samples were shock frozen in liquid nitrogen, weighed, and transferred to a centrifuge tube. The mass of the largest sample was multiplied by 50 to determine how many milliliters of HPLC-grade methanol (Fisher, Fair Lawn, NJ, United States) to add. Then, samples were spiked with 500 pmol deuterium-labeled NAGly (d8NAGly; Cayman Chemical, Ann Arbor, MI, United States). Samples were placed on ice in darkness for 2 h then individually homogenized and centrifuged at 19,000 × g for 20 min at 20°C. Supernatants were diluted with HPLC water (purified in house) to make a solution of 75% water, 25% supernatant. Lipids were partially purified on C18 solid phase extraction columns (Agilent, Palo Alto, CA, United States). A series of four elutions with 1.5 mL of 60%, 75%, 85%, and 100% methanol were collected ([Stuart et al., 2013]; [Leishman et al., 2016a],[b], [2018]).
As previously described ([Bradshaw et al., 2006]; [Tan et al., 2006]; [Smoum et al., 2010]; [Stuart et al., 2013]; [Tortoriello et al., 2013]; [Raboune et al., 2014]; [Leishman et al., 2016a],[b], [2017], [2018]), samples were analyzed using an Applied Biosystems API 3000 triple quadrupole mass spectrometer with electrospray ionization (Foster City, CA, United States). Using an Agilent XDB-C18 reversed phase analytical column and optimized mobile phase gradients, 20 μL from each elution were chromatographed. Two Shimadzu 10ADvp pumps (Columbia, MD, United States) provided the pressure for gradient elution. Mobile phase A: 20% methanol, 80% water (v/v) and 1 mM ammonium acetate (Sigma, St. Louis, MO, United States). Mobile phase B: 100% methanol, 1 mM ammonium acetate. Every method run began with 0% mobile phase B, reached 100% mobile phase B flowing at 0.2 mL/min, and gradually returned to 0% mobile phase B.
This screening library will be referred to as the lipidome when discussing data from this study. HPLC/MS/MS data were analyzed using Analyst software (Applied Biosystems) ([Bradshaw et al., 2006]; [Tan et al., 2006]; [Stuart et al., 2013]; [Tortoriello et al., 2013]; [Raboune et al., 2014]; [Leishman et al., 2016a],[b], [2017], [2018]). Chromatograms (Supplementary Figure 3) were generated by determining the retention time of analytes from the analytical column with a [M-1] or [M+1] parent peak and a fragmentation peak corresponding to the programmed values. […]

[1] = adult brainstem, 3mg/kg CP 55,940
[2] = adult cortex, 3 mg/kg CP 55,940
[3] = adult hypothalamus, 3mg/kg CP 55,940
[4] = adult midbrain, 3mg/kg CP 55,940
[5] = brainstem, PND35, 3 mg/kg CP 55,940 vs Veh

SMILES: CCCCCCC(C)(C)c1ccc([C@@H]2C[C@H](O)CC[C@H]2CCCO)c(O)c1 [CP 55,940]
- brain area with highest levels of CP (PND 35): CTX
- CP 55,940 level, Mean (PND 35, CER, 2 hours after acute 3 mg/kg injection): 7.2155E-011
- CP 55,940 level, Mean (PND 35, CTX, 2 hours after acute 3 mg/kg injection): 1.1107E-010
- CP 55,940 level, Mean (PND 35, HIPP, 2 hours after acute 3 mg/kg injection): 9.6303E-011
- CP 55,940 level, Mean (PND 35, HYP, 2 hours after acute 3 mg/kg injection): 5.3113E-011
- CP 55,940 level, Mean (PND 35, MID, 2 hours after acute 3 mg/kg injection): 7.9142E-011
- CP 55,940 level, Mean (PND 35, STEM, 2 hours after acute 3 mg/kg injection): 7.0414E-011
- CP 55,940 level, Mean (PND 35, STR, 2 hours after acute 3 mg/kg injection): 5.7413E-011
- CP 55,940 level, Mean (PND 35, THAL, 2 hours after acute 3 mg/kg injection): 8.8715E-011
- CP 55,940 level, Mean (PND 35, Total (all brain areas), 2 hours after acute 3 mg/kg injection): 7.8540E-011
- CP 55,940 level, Direction (relative to Veh) (PND 35 hypothalamus): ↑
- CP 55,940 level, Magnitude (x Veh level) (PND 35 hypothalamus): infinite
- CP 55,940 level: Magnitude (x Veh level) (PND 35 midbrain, 3mg/kg): infinite
- CP 55,940 level: Direction (rel to Veh) (PND 35 midbrain, 3mg/kg, one-way ANOVA): ↑
- CP 55,940 mean level (PND 35 striatum, 3 mg/kg i.p., 2 h): 5.74E-11 moles per gram
- brain area with highest levels of CP (PND 50): HIPP
- CP 55,940 level, Mean (PND 50, CER, 2 hours after acute 3 mg/kg injection): 7.5674E-011
- CP 55,940 level, Mean (PND 50, CTX, 2 hours after acute 3 mg/kg injection): 8.6116E-011
- CP 55,940 level, Mean (PND 50, HIPP, 2 hours after acute 3 mg/kg injection): 1.2297E-010
- CP 55,940 level, Mean (PND 50, HYP, 2 hours after acute 3 mg/kg injection): 4.3769E-011
- CP 55,940 level, Mean (PND 50, MID, 2 hours after acute 3 mg/kg injection): 1.2091E-010
- CP 55,940 level, Mean (PND 50, STEM, 2 hours after acute 3 mg/kg injection): 8.3747E-011
- CP 55,940 level, Mean (PND 50, STR, 2 hours after acute 3 mg/kg injection): 5.8704E-011
- CP 55,940 level, Mean (PND 50, THAL, 2 hours after acute 3 mg/kg injection): 9.9312E-011
- CP 55,940 level, Mean (PND 50, Total (all brain areas), 2 hours after acute 3 mg/kg injection): 8.6438E-011
- brain area with highest levels of CP (adult): CER
- CP 55,940 level, Direction (relative to Veh) [1]: ↑
- CP 55,940 level, Magnitude (x Veh level) [1]: infinite
- CP 55,940 level, Mean (adult cortex, 3mg/kg CP 55,940): 1.85E-10
- CP 55,940 Direction (relative to Veh) [2]: ↑
- CP 55,940 Magnitude (x Veh level) [2]: infinite
- CP 55,940 level, Mean (adult female mice, brainstem, 3mg/kg CP 55,940): 1.52E-10
- CP 55,940 level, Mean (adult hypothalamus, 3 mg/kg CP 55,940): 1.17E-10
- CP 55,940 Direction (relative to Veh) [3]: ↑
- CP 55,940 Magnitude (x Veh level) [3]: infinite
- CP 55,940 level, Mean [4]: 2.2E-10
- CP 55,940 Direction (relative to Veh) [4]: ↑
- CP 55,940 Magnitude (x Veh level) [4]: infinite
- CP 55,940 level, Mean (adult, CER, 2 hours after acute 3 mg/kg injection): 2.8002E-010
- CP 55,940 level, Mean (adult, CTX, 2 hours after acute 3 mg/kg injection): 1.8513E-010
- CP 55,940 level, Mean (adult, HIPP, 2 hours after acute 3 mg/kg injection): 2.6840E-010
- CP 55,940 level, Mean (adult, HYP, 2 hours after acute 3 mg/kg injection): 1.1726E-010
- CP 55,940 level, Mean (adult, MID, 2 hours after acute 3 mg/kg injection): 2.2043E-010
- CP 55,940 level, Mean (adult, STEM, 2 hours after acute 3 mg/kg injection): 1.5203E-010
- CP 55,940 level, Mean (adult, STR, 2 hours after acute 3 mg/kg injection): 2.0821E-010
- CP 55,940 level, Mean (adult, THAL, 2 hours after acute 3 mg/kg injection): 2.0002E-010
- CP 55,940 level, Mean (adult, Total (all brain areas), 2 hours after acute 3 mg/kg injection): 2.0394E-010
- brain area with lowest levels of CP (all three age groups): HYP
- variation of CP levels among the eight brain regions (all three age groups): twofold to threefold
- CP 55,940 level, Direction (relative to Veh) [5]: ↑
- CP 55,940 level, Magnitude (x Veh level) [5]: infinite
- CP 55,940 level (brainstem, PND35 female mice, 3mg/kg CP 55,940, mean): 7.04E-11
